From PubChem BioAssay AID1845217 (Molecular Pharmacology Branch, DTP, NCI, 2023)
Where “and” joins values, the source holds several entries; their conditions need not be identical. Identical values can stand only once.

Tested on: VA-ES-BJ tumor spheroid viability
Test: Anticancer human tumor VA-ES-BJ cell line growth inhibition;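 further: spheroids exposed to compounds for seven days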;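 on viability, T/C: percent of DMSO vehicle control viability so 100% = untreated growth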
Conditions: spheroids with HUVEC and MSC; for viability, T/C: stronger effect = lower value
Outline: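 Complex tumor spheroids combined malignant cells with endothelial cells and mesenchymal stem cells. DNA-damaging drugs and DNA repair inhibitors were tested alone and in combination, at half-log dilutions down from clinical Cmax (top 10 microM if Cmax unknown), 0.25% DMSO final.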

[1] = curve of first compound, second compound 0.003 µM
[2] = curve of first compound, second compound 0.00949 µM
[3] = curve of first compound, second compound 0.03 µM
[4] = curve of first compound, second compound 0.0949 µM
[5] = curve of first compound, second compound 0.3 µM

Question: For Cc1sc2c(c1C)C(c1ccc(Cl)cc1)=NC(CC(=O)Nc1ccc(O)cc1)c1nnc(C)n1-2 (configuration not stated) + CC[C@@]1(O)C(=O)OCc2c1cc1n(c2=O)Cc2cc3c(CN(C)C)c(O)ccc3nc2-1, which IC50 [1] is on record?
Answer: The IC50 was 0.101 µM.

Question: What about the IC50 [2] of the same compound?
Answer: The IC50 was 0.0454 µM.

Question: And the IC50 [3]?
Answer: The IC50 was under 0.00949 µM.

Question: What about the IC50 [4] of the same compound?
Answer: The IC50 was under 0.00949 µM.

Question: What about the IC50 [5] of the same compound?
Answer: The IC50 was under 0.00949 µM.

Question: And the viability, T/C (second compound 0.003 µM, first compound 0.00949 µM)?
Answer: Its viability, T/C is 78.5%.

Question: And the viability, T/C (second compound 0.003 µM, first compound 0.03 µM)?
Answer: The viability, T/C was 75.2%.

Question: What about the viability, T/C (second compound 0.003 µM, first compound 0.0949 µM) of the same compound?
Answer: Its viability, T/C is 47%.

Question: What about the viability, T/C (second compound 0.003 µM, first compound 0.3 µM) of the same compound?
Answer: The viability, T/C was 34.7%.

Question: And the viability, T/C (second compound 0.003 µM, first compound 0.949 µM)?
Answer: Its viability, T/C is 23.3%.

Question: What about the viability, T/C (second compound 0.003 µM, first compound 3 µM) of the same compound?
Answer: The viability, T/C was 19%.

Question: And the viability, T/C (second compound 0.00949 µM, first compound 0.00949 µM)?
Answer: Its viability, T/C is 66.1%.

Question: And the viability, T/C (second compound 0.00949 µM, first compound 0.03 µM)?
Answer: Its viability, T/C is 55.6%.

Question: What about the viability, T/C (second compound 0.00949 µM, first compound 0.0949 µM) of the same compound?
Answer: The viability, T/C was 40.1%.

Question: What about the viability, T/C (second compound 0.00949 µM, first compound 0.3 µM) of the same compound?
Answer: The viability, T/C was 28.6%.

Question: What about the viability, T/C (second compound 0.00949 µM, first compound 0.949 µM) of the same compound?
Answer: The viability, T/C was 18.4%.

Question: What about the viability, T/C (second compound 0.00949 µM, first compound 3 µM) of the same compound?
Answer: Its viability, T/C is 13.5%.

Question: What about the viability, T/C (second compound 0.03 µM, first compound 0.00949 µM) of the same compound?
Answer: The viability, T/C was 30.7%.

Question: And the viability, T/C (second compound 0.03 µM, first compound 0.03 µM)?
Answer: The viability, T/C was 33.7%.

Question: And the viability, T/C (second compound 0.03 µM, first compound 0.0949 µM)?
Answer: The viability, T/C was 23.1%.

Question: And the viability, T/C (second compound 0.03 µM, first compound 0.3 µM)?
Answer: Its viability, T/C is 13.3%.

Question: What about the viability, T/C (second compound 0.03 µM, first compound 0.949 µM) of the same compound?
Answer: The viability, T/C was 5.6%.

Question: And the viability, T/C (second compound 0.03 µM, first compound 3 µM)?
Answer: Its viability, T/C is 5.34%.

Question: And the viability, T/C (second compound 0.0949 µM, first compound 0.00949 µM)?
Answer: Its viability, T/C is 5.99%.

Question: What about the viability, T/C (second compound 0.0949 µM, first compound 0.03 µM) of the same compound?
Answer: The viability, T/C was 5.36%.

Question: What about the viability, T/C (second compound 0.0949 µM, first compound 0.0949 µM) of the same compound?
Answer: The viability, T/C was 5.41%.

Question: What about the viability, T/C (second compound 0.0949 µM, first compound 0.3 µM) of the same compound?
Answer: Its viability, T/C is 4.64%.

Question: What about the viability, T/C (second compound 0.0949 µM, first compound 0.949 µM) of the same compound?
Answer: The viability, T/C was 4.96%.

Question: And the viability, T/C (second compound 0.0949 µM, first compound 3 µM)?
Answer: The viability, T/C was 3.57%.

Question: And the viability, T/C (second compound 0.3 µM, first compound 0.00949 µM)?
Answer: The viability, T/C was 5.26%.

Question: And the viability, T/C (second compound 0.3 µM, first compound 0.03 µM)?
Answer: Its viability, T/C is 5.21%.

Question: And the viability, T/C (second compound 0.3 µM, first compound 0.0949 µM)?
Answer: The viability, T/C was 4.85%.

Question: What about the viability, T/C (second compound 0.3 µM, first compound 0.3 µM) of the same compound?
Answer: The viability, T/C was 4.65%.

Question: What about the viability, T/C (second compound 0.3 µM, first compound 0.949 µM) of the same compound?
Answer: The viability, T/C was 4.55%.

Question: What about the viability, T/C (second compound 0.3 µM, first compound 3 µM) of the same compound?
Answer: The viability, T/C was 3.36%.

Question: How did the viability, T/C (compound 0.00949 µM) turn out when CNCc1ccc(-c2cc(-c3nc(-c4ccc(S(=O)(=O)C(C)C)cc4)cnc3N)on2)cc1 was run?
Answer: Its viability, T/C is 77.7% and 86.1% and 87.9%.

Question: And the viability, T/C (compound 0.03 µM)?
Answer: The viability, T/C was 77.8% and 85% and 86.1%.

Question: What about the viability, T/C (compound 0.0949 µM) of the same compound?
Answer: Its viability, T/C is 76% and 74.3% and 83%.

Question: What about the viability, T/C (compound 0.3 µM) of the same compound?
Answer: The viability, T/C was 48.9% and 63.3% and 41%.

Question: And the viability, T/C (compound 0.949 µM)?
Answer: Its viability, T/C is 9.28% and 11.6% and 7.52%.

Question: What about the viability, T/C (compound 3 µM) of the same compound?
Answer: The viability, T/C was 2.21% and 6.18% and 1.41%.

Question: And the IC50 (curve of compound)?
Answer: The IC50 was 0.289 µM and 0.399 µM and 0.235 µM.

Question: CC(C)n1c(=O)n(C)c2cnc3cc(F)c(-c4ccc(OCCCN5CCCCC5)nc4)cc3c21 + CC[C@@]1(O)C(=O)OCc2c1cc1n(c2=O)Cc2cc3c(CN(C)C)c(O)ccc3nc2-1 was tested. Which IC50 [1] did it give?
Answer: Its IC50 is 3.97 µM.

Question: What about the IC50 [2] of the same compound?
Answer: The IC50 was under 0.0316 µM.

Question: And the IC50 [3]?
Answer: The IC50 was under 0.0316 µM.

Question: And the IC50 [4]?
Answer: The IC50 was under 0.0316 µM.

Question: What about the IC50 [5] of the same compound?
Answer: The IC50 was under 0.0316 µM.

Question: And the viability, T/C (second compound 0.003 µM, first compound 0.0316 µM)?
Answer: The viability, T/C was 82.7%.

Question: What about the viability, T/C (second compound 0.003 µM, first compound 0.1 µM) of the same compound?
Answer: Its viability, T/C is 76%.

Question: And the viability, T/C (second compound 0.003 µM, first compound 0.316 µM)?
Answer: The viability, T/C was 80%.

Question: What about the viability, T/C (second compound 0.003 µM, first compound 1 µM) of the same compound?
Answer: The viability, T/C was 77.3%.

Question: And the viability, T/C (second compound 0.003 µM, first compound 3.16 µM)?
Answer: Its viability, T/C is 54.7%.

Question: What about the viability, T/C (second compound 0.003 µM, first compound 10 µM) of the same compound?
Answer: The viability, T/C was 30.8%.

Question: What about the viability, T/C (second compound 0.00949 µM, first compound 0.0316 µM) of the same compound?
Answer: Its viability, T/C is 50.8%.

Question: What about the viability, T/C (second compound 0.00949 µM, first compound 0.1 µM) of the same compound?
Answer: Its viability, T/C is 46.3%.

Question: And the viability, T/C (second compound 0.00949 µM, first compound 0.316 µM)?
Answer: Its viability, T/C is 45.3%.

Question: What about the viability, T/C (second compound 0.00949 µM, first compound 1 µM) of the same compound?
Answer: Its viability, T/C is 44.5%.

Question: And the viability, T/C (second compound 0.00949 µM, first compound 3.16 µM)?
Answer: The viability, T/C was 37.3%.

Question: And the viability, T/C (second compound 0.00949 µM, first compound 10 µM)?
Answer: The viability, T/C was 20.5%.

Question: What about the viability, T/C (second compound 0.03 µM, first compound 0.0316 µM) of the same compound?
Answer: The viability, T/C was 30.3%.

Question: And the viability, T/C (second compound 0.03 µM, first compound 0.1 µM)?
Answer: Its viability, T/C is 27.4%.

Question: What about the viability, T/C (second compound 0.03 µM, first compound 0.316 µM) of the same compound?
Answer: The viability, T/C was 31.4%.

Question: What about the viability, T/C (second compound 0.03 µM, first compound 1 µM) of the same compound?
Answer: The viability, T/C was 26.9%.

Question: What about the viability, T/C (second compound 0.03 µM, first compound 3.16 µM) of the same compound?
Answer: The viability, T/C was 27.5%.

Question: What about the viability, T/C (second compound 0.03 µM, first compound 10 µM) of the same compound?
Answer: Its viability, T/C is 11.9%.

Question: What about the viability, T/C (second compound 0.0949 µM, first compound 0.0316 µM) of the same compound?
Answer: Its viability, T/C is 6.85%.

Question: What about the viability, T/C (second compound 0.0949 µM, first compound 0.1 µM) of the same compound?
Answer: The viability, T/C was 6.85%.

Question: And the viability, T/C (second compound 0.0949 µM, first compound 0.316 µM)?
Answer: The viability, T/C was 7.33%.

Question: What about the viability, T/C (second compound 0.0949 µM, first compound 1 µM) of the same compound?
Answer: Its viability, T/C is 7.9%.

Question: What about the viability, T/C (second compound 0.0949 µM, first compound 3.16 µM) of the same compound?
Answer: The viability, T/C was 8.2%.

Question: And the viability, T/C (second compound 0.0949 µM, first compound 10 µM)?
Answer: The viability, T/C was 7.69%.

Question: And the viability, T/C (second compound 0.3 µM, first compound 0.0316 µM)?
Answer: Its viability, T/C is 4.4%.

Question: And the viability, T/C (second compound 0.3 µM, first compound 0.1 µM)?
Answer: Its viability, T/C is 4.06%.

Question: And the viability, T/C (second compound 0.3 µM, first compound 0.316 µM)?
Answer: The viability, T/C was 3.67%.

Question: What about the viability, T/C (second compound 0.3 µM, first compound 1 µM) of the same compound?
Answer: The viability, T/C was 3.49%.

Question: And the viability, T/C (second compound 0.3 µM, first compound 3.16 µM)?
Answer: Its viability, T/C is 3.07%.

Question: And the viability, T/C (second compound 0.3 µM, first compound 10 µM)?
Answer: Its viability, T/C is 2.74%.
